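These data come from cells grown in 96-well plates and exposed to compound for 48 hours at five concentrations. Here, GI50 denotes the concentration required for 50% inhibition of growth. The concentration for full growth arrest is given as TGI.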
Experiments:
Assay in all cases: NCI tumour cell line growth inhibition, 48 h
OVCAR-8 ovarian = system: OVCAR-8 ovarian
OVCAR-3 ovarian = system: OVCAR-3 ovarian
SK-MEL-2 melanoma = system: SK-MEL-2 melanoma
SK-MEL-28 melanoma = system: SK-MEL-28 melanoma
IGROV1 ovarian = system: IGROV1 ovarian
RXF 393 renal = system: RXF 393 renal
SW-620 colon = system: SW-620 colon
EKVX NSCLC = system: EKVX NSCLC
U251 CNS = system: U251 CNS
SR leukemia = system: SR leukemia

Structure (SMILES)	TGI (OVCAR-8 ovarian)	TGI (OVCAR-3 ovarian)	TGI (SK-MEL-2 melanoma)	TGI (SK-MEL-28 melanoma)	TGI (IGROV1 ovarian)	TGI (RXF 393 renal)	TGI (SW-620 colon)	TGI (EKVX NSCLC)	TGI (U251 CNS)	TGI (SR leukemia)	GI50 (OVCAR-8 ovarian)	GI50 (OVCAR-3 ovarian)	GI50 (SK-MEL-2 melanoma)	GI50 (SK-MEL-28 melanoma)	GI50 (IGROV1 ovarian)	GI50 (RXF 393 renal)	GI50 (SW-620 colon)	GI50 (EKVX NSCLC)	GI50 (U251 CNS)	GI50 (SR leukemia)
Cc1cc(Cl)ccc1Nc1nc2c(s1)C(=O)c1ccccc1C2=O	11.6 µM	4.6 µM	22.7 µM	4.14 µM	11.9 µM	16.8 µM	4.01 µM	21.4 µM	12.7 µM	10.8 µM	–	–	–	–	–	–	–	–	–	–
Nc1nc(-c2ccc3ccccc3c2)cc(-c2cc(-c3ccc4ccccc4c3)nc(N)n2)n1	> 100 µM	> 100 µM	> 100 µM	> 100 µM	> 100 µM	> 100 µM	> 100 µM	> 100 µM	> 100 µM	> 100 µM	–	–	–	–	–	–	–	–	–	–
COC(=O)Cc1nn2c(nc1=O)sc1ccc3ccccc3c12	> 100 µM	> 100 µM	> 100 µM	> 100 µM	> 100 µM	96 µM	> 100 µM	> 100 µM	74.1 µM	> 100 µM	–	–	–	–	–	–	–	–	–	–
CC/C(=C(/CC)c1ccc(O)cc1)c1ccc(O)cc1	37.1 µM	7 µM	26.7 µM	19.9 µM	52.3 µM	21.8 µM	14.5 µM	34.7 µM	18.2 µM	29.6 µM	7.9 µM	2.72 µM	9.23 µM	6.96 µM	12.4 µM	6.72 µM	3.88 µM	5.66 µM	4.91 µM	3.98 µM
CCN(CC)CCNC(=O)C(Cl)=C1C(Cl)=C(Cl)C(Cl)=C1Cl	> 100 µM	7.45 µM	11.6 µM	7.11 µM	> 100 µM	15.9 µM	12.5 µM	> 100 µM	10.2 µM	> 100 µM	2.81 µM	2.45 µM	3 µM	2.45 µM	3.19 µM	3.76 µM	3.25 µM	6.44 µM	2.85 µM	3.36 µM
CCOC(=O)Cn1c(=O)[nH]c(=O)c2[nH]cnc21	> 100 µM	> 100 µM	> 100 µM	> 100 µM	> 100 µM	> 100 µM	> 100 µM	> 100 µM	> 100 µM	> 100 µM	–	–	–	–	–	–	–	–	–	–
Cc1ccc(S(=O)(=O)OC2CSSCC2OS(=O)(=O)c2ccc(C)cc2)cc1 (stereo not given)	26.1 µM	26.2 µM	29.1 µM	30.3 µM	32.9 µM	37.7 µM	29.6 µM	50 µM	27.2 µM	38.8 µM	–	–	–	–	–	–	–	–	–	–
N/C(=N/N=C/c1cccc(F)c1)NO	> 100 µM	> 100 µM	> 100 µM	> 100 µM	> 100 µM	78.4 µM	> 100 µM	> 100 µM	> 100 µM	> 100 µM	–	–	–	–	–	–	–	–	–	–
COc1cc(CC(=O)c2cc3c(cc2-c2ccccc2)OCO3)cc(OC)c1OC	> 100 µM	> 100 µM	> 100 µM	> 100 µM	> 100 µM	> 100 µM	> 100 µM	> 100 µM	> 100 µM	72.3 µM	–	–	–	–	–	–	–	–	–	–

— PubChem BioAssay (NCI)
